Results published in ChEMBL document CHEMBL1201862, “PubChem BioAssay data set” (2004).
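These data come from cells grown in 96-well plates and exposed to compound for 48 hours at five concentrations. GI50 is the concentration that inhibits growth by half.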 Calls of active or inactive are those of the source. No stated cut-off is given here; in the data, active = GI50 up to about 1.1 µM and inactive = higher.

Experiments:
Assay in all cases: DTP human tumour cell line panel, 48 h
MDA-N = system: MDA-N
Hs-578T = system: Hs-578T
MDA-MB-435 = system: MDA-MB-435
T47D = system: T47D
DU-145 = system: DU-145
BT-549 = system: BT-549
MDA-MB-231 = system: MDA-MB-231
RXF 631 = system: RXF 631

Compound | GI50 (Hs-578T) | GI50 (MDA-MB-435) | GI50 (RXF 631) | other results
CCOC1=NC(C(F)(F)F)(C(F)(F)F)N=C(N2CCOCC2)O1 | > 100 µM (inactive) | > 100 µM (inactive) | – | GI50 (MDA-N): > 100 µM (inactive); GI50 (T47D): 27 µM (inactive); GI50 (DU-145): > 100 µM (inactive); GI50 (BT-549): > 100 µM (inactive); GI50 (MDA-MB-231): > 100 µM (inactive)
Cc1nc(-c2nc([N+](=O)[O-])c([N+](=O)[O-])[nH]2)cs1 | – | – | > 100 µM (inactive) | –
CCOC(=O)c1ncoc1[C@H]1COC(C)(C)O1 | – | – | > 100 µM (inactive) | –
COc1ccc(C2=N/C(=C\c3ccccc3)C(=O)O2)cc1 | 40.8 µM (inactive) | > 100 µM (inactive) | – | –
